Here are results for 24 compounds from PubChem BioAssay AID330 (DTP/NCI, 2004).

“And” between values parts separate entries of the source, which are not always exact repeats. Identical values can stand only once. Inconclusive results and toxic doses are left out.

This assay concerns P388 leukemia ip, CD2F1 mice, survival T/C. Nature of the assay: NCI In Vivo Anticancer Drug Screen. Data for tumor model P388 Leukemia (intraperitoneal) in CD2F1 (CDF1) mice. The settings on record: endpoint: median survival time, higher = longer survival. In outline:
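Mice carrying the transplanted tumor received test compound or vehicle. Survival was recorded in each group, and the value is the treated-group measurement divided by that of the vehicle-treated control group.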

[1] abbreviates: dose: 50.0 mg/kg/injection, schedule: Q01DX005 (ip), vehicle: saline with Tween-80.
Where [2] appears, read: dose: 200.0 mg/kg/injection, schedule: Q01DX005 (ip), vehicle: saline with Tween-80.
[3] abbreviates: dose: 60.0 mg/kg/injection, schedule: Q01DX005 (ip), vehicle: Klucel (hydroxypropylcellulose) (HPC).
Where [4] appears, read: dose: 120.0 mg/kg/injection, schedule: Q01DX005 (ip), vehicle: Klucel (hydroxypropylcellulose) (HPC).
Setting [5] is: dose: 240.0 mg/kg/injection, schedule: Q01DX005 (ip), vehicle: Klucel (hydroxypropylcellulose) (HPC).
Where [6] appears, read: dose: 60.0 mg/kg/injection, schedule: Q01DX005 (ip), vehicle: saline with Tween-80.
The mark [7] stands for this setting: dose: 120.0 mg/kg/injection, schedule: Q01DX005 (ip), vehicle: saline with Tween-80.
Setting [8] is: dose: 240.0 mg/kg/injection, schedule: Q01DX005 (ip), vehicle: saline with Tween-80.
The mark [9] stands for this setting: dose: 100.0 mg/kg/injection, schedule: Q04DX003 (ip), vehicle: saline.
Setting [10] is: dose: 200.0 mg/kg/injection, schedule: Q04DX003 (ip), vehicle: saline.
Where [11] appears, read: dose: 400.0 mg/kg/injection, schedule: Q04DX003 (ip), vehicle: saline.
Setting [12] is: dose: 6.25 mg/kg/injection, schedule: Q01DX005 (ip), vehicle: Klucel (hydroxypropylcellulose) (HPC).
The mark [13] stands for this setting: dose: 12.5 mg/kg/injection, schedule: Q01DX005 (ip), vehicle: Klucel (hydroxypropylcellulose) (HPC).
Where [14] appears, read: dose: 25.0 mg/kg/injection, schedule: Q01DX005 (ip), vehicle: Klucel (hydroxypropylcellulose) (HPC).
[15] abbreviates: dose: 6.25 mg/kg/injection, schedule: Q01DX009 (ip), vehicle: saline.
Setting [16] is: dose: 12.5 mg/kg/injection, schedule: Q01DX009 (ip), vehicle: saline.
The mark [17] stands for this setting: dose: 25.0 mg/kg/injection, schedule: Q01DX009 (ip), vehicle: saline.

Consider `COc1cc2c(cc1C[N+](C)(C)CSc1ccccc1)-c1ccccc1CC2`, for which the T/C reads like this: (dose: 1.25 mg/kg/injection, schedule: Q01DX005 (ip), vehicle: DMSO) 108 % of control; (dose: 2.5 mg/kg/injection, schedule: Q01DX005 (ip), vehicle: DMSO) 101 % of control; (dose: 5.0 mg/kg/injection, schedule: Q01DX005 (ip), vehicle: DMSO) 105 % of control.

On to `COC(=O)C1(OC(=O)CCC(=O)O)C(=O)NC2=C1C(=O)c1ccccc1C2=O` (stereo unspecified), for which the T/C is, setting by setting: under setting [1], 109 % of control and 119 % of control; under setting [2], 111 % of control and 113 % of control.

As for `O=S(=O)(O)c1ccc2c(-c3ccccc3)c3ccccc3c(-c3ccccc3)c2c1`, the T/C runs as follows: under setting [3], 99 % of control; under setting [4], 100 % of control; under setting [5], 98 % of control.

In the case of `O=C1CCC2C(=O)OCC12` (stereo unspecified), the T/C was 99 % of control (dose: 50.0 mg/kg/injection, schedule: Q04DX002 (ip), vehicle: saline); 101 % of control (dose: 100.0 mg/kg/injection, schedule: Q04DX002 (ip), vehicle: saline); 94 % of control (dose: 200.0 mg/kg/injection, schedule: Q04DX002 (ip), vehicle: saline); 100 % of control (dose: 400.0 mg/kg/injection, schedule: Q04DX002 (ip), vehicle: saline).

Consider `CCOc1c(N=Nc2ccccc2OC)c(C)nn1C(N)=S`, for which the T/C was 100 % of control (dose: 3.75 mg/kg/injection, schedule: Q01DX005 (ip), vehicle: Klucel + Tween-80); 94 % of control (dose: 7.5 mg/kg/injection, schedule: Q01DX005 (ip), vehicle: Klucel + Tween-80); 99 % of control and 105 % of control (dose: 15.0 mg/kg/injection, schedule: Q01DX005 (ip), vehicle: Klucel + Tween-80).

In the case of `COc1ccc(-c2cn(-c3ccccc3)c3ncnc(N)c23)cc1`, the T/C under setting [6] is 102 % of control, the T/C under setting [7] was 103 % of control and the T/C under setting [8] was 103 % of control.

As to `O=C(c1ccccc1)C(F)(F)C(F)(F)F`, the T/C reads like this: (dose: 25.0 mg/kg/injection, schedule: Q01DX009 (ip), vehicle: saline with Tween-80) 107 % of control; (dose: 50.0 mg/kg/injection, schedule: Q01DX009 (ip), vehicle: saline with Tween-80) 109 % of control; (dose: 100.0 mg/kg/injection, schedule: Q01DX009 (ip), vehicle: saline with Tween-80) 110 % of control; (dose: 200.0 mg/kg/injection, schedule: Q01DX009 (ip), vehicle: saline with Tween-80) 109 % of control.

For `CC(C)(C)NC(=O)NCCCCCCNC(=O)NC(C)(C)C`, the T/C under setting [6] is 96 % of control, the T/C under setting [7] was 96 % of control and the T/C under setting [8] was 101 % of control.

In the case of `N#CCCN(C(=S)Nc1ccc(F)cc1)N1CCCCCC1`, the T/C under setting [9] was 100 % of control, the T/C under setting [10] is 107 % of control and the T/C under setting [11] was 98 % of control.

On to `O=C1CN(CCO)CC(=O)N2Cc3ccccc3CN12`, for which the T/C under setting [1] is 101 % of control; the T/C (dose: 100.0 mg/kg/injection, schedule: Q01DX005 (ip), vehicle: saline with Tween-80) is 111 % of control; the T/C under setting [2] was 103 % of control.

For `CCn1c(COc2c(I)cc(I)c3cccnc23)n[nH]c1=S`, the T/C is, setting by setting: under setting [12], 96 % of control; under setting [13], 98 % of control; under setting [14], 102 % of control; (dose: 50.0 mg/kg/injection, schedule: Q01DX005 (ip), vehicle: Klucel (hydroxypropylcellulose) (HPC)) 98 % of control.

In the case of `Cc1cc(=O)c2c(ccc3c(=O)cc(C)[nH]c32)[nH]1`, the T/C by setting is: (dose: 30.0 mg/kg/injection, schedule: Q01DX005 (ip), vehicle: saline with Tween-80) 93 % of control; under setting [6], 91 % of control; under setting [7], 100 % of control and 91 % of control.

With `CCN(CC)Cc1c(C)[nH]c2cc3c(cc2c1=O)CCCC3`, the T/C under setting [3] was 98 % of control and the T/C under setting [4] is 90 % of control.

In the case of `C1CC[N-]CC1.C1CC[N-]CC1.N#C[S-].N#C[S-].[Cu]`, the T/C reads like this: (dose: 1.25 mg/kg/injection, schedule: Q04DX003 (ip), vehicle: saline with Tween-80) 100 % of control; (dose: 2.5 mg/kg/injection, schedule: Q04DX003 (ip), vehicle: saline with Tween-80) 100 % of control; (dose: 5.0 mg/kg/injection, schedule: Q04DX003 (ip), vehicle: saline with Tween-80) 90 % of control; (dose: 10.0 mg/kg/injection, schedule: Q04DX003 (ip), vehicle: saline with Tween-80) 90 % of control.

In the case of `COc1ccc2ccc3c4c(c(=O)[nH]c3c2n1)CCC4`, the T/C is, setting by setting: under setting [9], 101 % of control; under setting [10], 92 % of control; under setting [11], 105 % of control.

With `COc1c(CO)c2c(c(OC)c1OC)-c1ccc(OC)c(=O)cc1[C@@H](NC(C)=O)CC2`, the T/C was 160 % of control (dose: 25.0 mg/kg/injection, schedule: Q01DX009 (ip), vehicle: Klucel (hydroxypropylcellulose) (HPC)) and 185 % of control (dose: 50.0 mg/kg/injection, schedule: Q01DX009 (ip), vehicle: Klucel (hydroxypropylcellulose) (HPC)).

`CC[N+]1(C)CCCCC1`: the T/C is, setting by setting: under setting [15], 107 % of control; under setting [16], 103 % of control; under setting [17], 97 % of control; (dose: 50.0 mg/kg/injection, schedule: Q01DX009 (ip), vehicle: saline) 97 % of control.

Consider `C=C1C(O)C2(O)OCC34C(CC5C(C)=CC(=O)C(O)C5(C)C23)OC(=O)C(OC(=O)C/C=C/CCCCCCCC)C14` (stereo unspecified), for which the T/C is, setting by setting: (dose: 2.0 mg/kg/injection, schedule: Q01DX005 (ip), vehicle: saline + alcohol) 151 % of control; (dose: 4.0 mg/kg/injection, schedule: Q01DX005 (ip), vehicle: saline + alcohol) 151 % of control and 156 % of control; (dose: 8.0 mg/kg/injection, schedule: Q01DX005 (ip), vehicle: saline + alcohol) 198 % of control; (dose: 16.0 mg/kg/injection, schedule: Q01DX005 (ip), vehicle: saline + alcohol) 205 % of control.

With `Cc1ccc(S(=O)(=O)NN=c2c3ccccc3ccc3ccccc23)cc1`, the T/C (dose: 100.0 mg/kg/injection, schedule: Q04DX002 (ip), vehicle: Klucel (hydroxypropylcellulose) (HPC)) is 94 % of control; the T/C (dose: 200.0 mg/kg/injection, schedule: Q04DX002 (ip), vehicle: Klucel (hydroxypropylcellulose) (HPC)) is 91 % of control; the T/C (dose: 400.0 mg/kg/injection, schedule: Q04DX002 (ip), vehicle: Klucel (hydroxypropylcellulose) (HPC)) was 90 % of control.

Consider `C/C(=N\NC(N)=Nc1ccccc1)c1ccc(Cl)c(Cl)c1`, for which the T/C reads like this: (dose: 25.0 mg/kg/injection, schedule: Q04DX002 (ip), vehicle: saline with Tween-80) 100 % of control; (dose: 50.0 mg/kg/injection, schedule: Q04DX002 (ip), vehicle: saline with Tween-80) 101 % of control; (dose: 100.0 mg/kg/injection, schedule: Q04DX002 (ip), vehicle: saline with Tween-80) 110 % of control.

Regarding `CCCCOC(=O)c1ccccc1C(=O)O.CCCCOC(=O)c1ccccc1C(=O)O.[Cu+2]`, the T/C reads like this: (dose: 6.25 mg/kg/injection, schedule: Q04DX003 (ip), vehicle: saline with Tween-80) 102 % of control; (dose: 12.5 mg/kg/injection, schedule: Q04DX003 (ip), vehicle: saline with Tween-80) 96 % of control; (dose: 25.0 mg/kg/injection, schedule: Q04DX003 (ip), vehicle: saline with Tween-80) 102 % of control.

Consider `C=C1C(=O)OC2/C=C(\C=O)C3OC3C3OC3(C)CC(OC(=O)/C(=C/C)CO)C12` (stereo unspecified), for which the T/C runs as follows: (dose: 3.12 mg/kg/injection, schedule: Q01DX005 (ip), vehicle: Klucel (hydroxypropylcellulose) (HPC)) 100 % of control; under setting [12], 110 % of control; under setting [13], 110 % of control; under setting [14], 101 % of control.

For `COC(=O)NN(C(=O)OC)C1CCCC2C1c1ccc3ccccc3c1N(C(=O)OC)N2C(=O)OC` (stereo unspecified), the T/C under setting [3] is 107 % of control, the T/C under setting [4] was 100 % of control and the T/C under setting [5] was 109 % of control.

On to `C[N+]12CCCCC1CC2` (stereo unspecified), for which the T/C was 89 % of control under setting [15], 88 % of control under setting [16] and 91 % of control under setting [17].
